Experimental data taken from patent US7166642B1, “Use of cyclohexenone long-chain alcohol for treating neurodegenerative diseases” (Meiji Dairies Corporation, priority 1999, dated 2007).
Each block holds one molecule with its values, some of them ahead of it.

Assays:
[1] = system: transgenic mice expressing an SOD-1 mutant gene (G86R); test: Survival test for transgenic mice expressing an SOD-1 mutant gene; type: in vivo, mouse
Experimental: Ten transgenic mice were subjected to the survival test. The transgenic mice employed were those in which Gly-86 in the fourth exon of a mouse SOD-1 gene is mutated to Arg (G86R) (Ripps M. E., et al.: Proc. Natl. Acad. Sci. USA. 92: 689–693, 1995). The compound of Preparation Example 10 [3-(14-hydroxytetradecyl)-4-methyl-2-cyclohexen-1-one] was dissolved in ethanol/Tween 80/physiological saline (5/2.85/92.15). The solution was intraperitoneally (i.p.) administered to five specimens at an effective dose of 2 mg/kg for 40 continuous days, and physiological saline alone was similarly administered to the other five specimens. One mouse died due to injection complication before elapse of 90 days. The other four mice died at day 150. All control animals died at about day 90. The life was prolonged by 50% or more, which has high significance.
(1) Transgenic mice expressing an SOD-1 mutant gene were subjected to the survival test in the same manner as Test Example 1 except that 8 mg/kg of compound of Preparation Example 10 was intraperitoneally administered three times a week until the mice died. […] The life was prolonged by 30% or more.
(3) Moreover, in the survival test of transgenic mice (1), onset day (i.e., the day from which mouse becomes impossible to move) was compared between the mouse to which was administered compound of Preparation Example 10 and the control mouse. As a result, for the mouse to which was administered compound of Preparation Example 10, when compared to the control mouse, a prolonged time to the onset day by […] was observed, onset day being prolonged by 20%.

[2] = system: transgenic mice expressing an SOD-1 mutant gene; test: Bar test for confirming the motor function in transgenic mice expressing the mutant SOD-1 gene; type: in vivo, mouse; details: 8 mg/kg i.p. three times a week; measured from 80 to 91 days after birth; metallic bar 10 mm diameter, 45 cm length
Experimental: (2) Meanwhile, during the survival test (1) of the transgenic mice, bar test for confirming the motor function was conducted. In this test, the mouse to which was administered compound of Preparation 10 and control mouse were compared in the time (seconds) required for their passing over a metallic bar having the size of 10 mm in diameter and 45 cm in length. The measurement was carried out from 80 days to 91 days after birth. […] However, when compared the difference between the time at the initial date and the time at the final date, of the mouse to which was administered compound of Preparation Example 10 and of the control mouse, the ratio of the difference of the mouse to which was administered compound of Preparation Example 10 to the difference of the control mouse was about 40%.

[3] = system: Neurons originating from the cerebral hemisphere of rat fetus; test: Neurite-extension effect; type: cell-based; design: key to Neurite-extension effect: 0: No effect; +: Faintly effective; ++: Slightly effective; +++: Effective >160%; ++++: Remarkably effective >200%; details: for activity at 0.01 µM: Rattus norvegicus, Neuron, 72 h; for activity at 0.01 µM / Neurite-extension effect: 1×10^−8 M, cultured for three days, phase-contrast microscope; for neurite-extension effect as compared with bFGF (in words): summary of Table 1
Experimental: Neurons originating from the cerebral hemisphere of rat fetus (13–15 days) were used. The neurons were cultured according to a method described by Borg, J. et al. (Borg, J. et al.: Dev. Brain Res., 18: 37, 1985). Neurons in an amount of 1.5×10^5 were dispersed on a polylysine-coated dish (35 mm), and DMEM (supplemented with insulin, transferrin, progesterone, sodium selenate, and putrescine) was added thereto in an amount of 3 ml. Compound (1) of the present invention was dissolved in ethanol, and then the solution was added thereto such that the concentration became 1×10^−8 M. The neurons had been cultured for three days without the culture medium being changed. Thereafter, the neurons were fixed by use of PBS containing 2% glutaraldehyde and observed under a phase-contrast microscope.

Molecule: CC1CCC(=O)C=C1CCCCCCCCCCCCCCO (stereo not drawn) [Preparation Example 10, 3-(14-hydroxytetradecyl)-4-methyl-2-cyclohexen-1-one]
prolongation of life ([1]; Test Example 1: 2 mg/kg i.p. for 40 continuous days, versus saline control): ≥ 50% | day at which treated mice died ([1]; Test Example 1: 2 mg/kg i.p. for 40 continuous days, four of five mice (one died of injection complication before day 90), controls died at about day 90): 150 days | activity of mice during the test ([1]; Test Example 1, control mice were morbid and could not act appropriately): very active | survival of two of the treated mice ([1]; Test Example 2: 8 mg/kg i.p. three times a week until death): more than 200 days | day at which treated mice died, on average ([1]; Test Example 2: 8 mg/kg i.p. three times a week until death, controls died at around day 110): ~150 days | prolongation of onset day ([1]; Test Example 2: 8 mg/kg i.p. three times a week, compared to control): 20% | prolongation of life ([1]; Test Example 2: 8 mg/kg i.p. three times a week, versus control): ≥ 30% | ratio of the difference (time at initial date vs final date for passing the bar) of treated mouse to that of control mouse [2]: about 40% | activity at 0.01 µM [3]: > 200% | neurite-extension effect as compared with bFGF (in words) [3]: remarkably excellent

melting point: 34 to 35 °C
Molecule: CCCCCCCCCCC(O)C1=CC(=O)CCC1 (stereo not drawn) [Preparation Example 2, 3-(1-hydroxy-undecyl)-2-cyclohexen-1-one]

Molecule: CC1=C(CCCCCCCCCCCCO)CCCC1=O [Preparation Example 18, 3-(12-hydroxydodecyl)-2-methyl-2-cyclohexen-1-one]
Neurite-extension effect [3]: ++

Molecule: CC1=C(CCCCCCCCCCCCCCO)CCCC1=O [Preparation Example 20, 3-(14-hydroxytetradecyl)-2-methyl-2-cyclohexen-1-one]
activity at 0.01 µM [3]: > 200% | neurite-extension effect as compared with bFGF (in words) [3]: remarkably excellent

melting point: 35 to 36 °C
Molecule: O=C1C=C(CCCCCCCCCCCCO)CCC1 [Preparation Example 3, 3-(12-hydroxy-dodecyl)-2-cyclohexen-1-one]

Molecule: BFGF: bFGF, comparison substance in the neurite-extension test of Table 1 [reference compound]
Neurite-extension effect [3]: ++

Molecule: CC1=C(CCCCCCCCCCC(C)O)C(C)(C)CCC1=O (stereo not drawn) [Preparation Example 22, 3-(11-hydroxydodecyl)-2,4,4-trimethyl-2-cyclohexen-1-one]
Neurite-extension effect [3]: ++

Molecule: CC1(C)CCC(=O)C=C1CCCCCCCCCCCCO [Preparation Example 13, 3-(12-hydroxydodecyl)-4,4-dimethyl-2-cyclohexen-1-one]
activity at 0.01 µM [3]: > 160%

Molecule: CCCCCCCCCCCC(O)CC1=CC(=O)CCC1(C)C (stereo not drawn) [Preparation Example 14, 3-(β-hydroxytridecyl)-4,4-dimethyl-2-cyclohexen-1-one]
activity at 0.01 µM [3]: > 160%

Molecule: CC1(C)CCC(=O)C=C1CCCCCCCCCCCCCCO [Preparation Example 15, 3-(14-hydroxytetradecyl)-4,4-dimethyl-2-cyclohexen-1-one]
activity at 0.01 µM [3]: > 160%

Molecule: CC1CCC(=O)C=C1CCCCCCCCCCCCO (stereo not drawn) [Preparation Example 8, 3-(12-hydroxydodecyl)-4-methyl-2-cyclohexen-1-one]
activity at 0.01 µM [3]: > 160%

Molecule: CCCCCCCCCCCC(O)CC1=CC(=O)CCC1C (stereo not drawn) [Preparation Example 9, 3-(β-hydroxytridecyl)-4-methyl-2-cyclohexen-1-one]
activity at 0.01 µM [3]: > 200% | neurite-extension effect as compared with bFGF (in words) [3]: remarkably excellent

Molecule: CC1=C(CCCCCCCCCCCCCCCO)C(C)(C)CCC1=O [Preparation Example 24, 3-(15-hydroxypentadecyl)-2,4,4-trimethyl-2-cyclohexen-1-one]
activity at 0.01 µM [3]: > 200% | neurite-extension effect as compared with bFGF (in words) [3]: remarkably excellent

Molecule: CC1=C(CCCCCCCCCCCCCCO)C(C)(C)CCC1=O [Preparation Example 23, 3-(14-hydroxytetradecyl)-2,4,4-trimethyl-2-cyclohexen-1-one]
activity at 0.01 µM [3]: > 160% | neurite-extension effect as compared with bFGF (in words) [3]: remarkably excellent

melting point: 44 to 45 °C
Molecule: O=C1C=C(CCCCCCCCCCCCCCO)CCC1 [Preparation Example 5, 3-(14-hydroxy-tetradecyl)-2-cyclohexen-1-one]

melting point: 42 to 43 °C
Molecule: CCCCCCCCCCCC(O)CC1=CC(=O)CCC1 (stereo not drawn) [Preparation Example 4, 3-(β-hydroxy-tridecyl)-2-cyclohexen-1-one]

Molecule: CC1(C)CCC(=O)C=C1CCCCCCCCCCCO [Preparation Example 12, 3-(11-hydroxyundecyl)-4,4-dimethyl-2-cyclohexen-1-one]
Neurite-extension effect [3]: ++
